Data taken from US20230226005A1, “Methods of Treating, Ameliorating, Shortening Duration, and/or Reversing Symptoms and/or Complications of a Coronavirus Infection” (Yale University, priority 2020, published 2023).

Tested on: SARS-CoV-2
Experiment: Phase IIa double-blind placebo-controlled study, camostat mesylate 200 mg four times daily for seven days: viral load (log10) by COVID-19 RT-PCR of nasopharyngeal swab and saliva
Format: in vivo
Settings: for viral load, Fitzmaurice mixed model, Common baseline: day 0; for viral load change Effect (camostat vs placebo), Fitzmaurice mixed model, visit 2 / viral load, Fitzmaurice mixed model, visit 2 / viral load, Fitzmaurice mixed model, visit 2 change: day 2; for viral load change Effect (camostat vs placebo), Fitzmaurice mixed model, visit 3(D4) / viral load, Fitzmaurice mixed model, visit 3(D4) / viral load, Fitzmaurice mixed model, visit 3(D4) change: day 4; for viral load change Effect (camostat vs placebo), Fitzmaurice mixed model, visit 4(D6) / viral load, Fitzmaurice mixed model, visit 4(D6) / viral load, Fitzmaurice mixed model, visit 4(D6) change: day 6

CN(C)C(=O)COC(=O)Cc1ccc(OC(=O)c2ccc(NC(=N)N)cc2)cc1 [camostat, 4-[[4-[(Aminoiminomethyl)amino]benzoyl]oxy]benzeneacetic acid 2-(dimethylamino)-2-oxoethyl ester]
viral load, Fitzmaurice mixed model, Common baseline (N gene): 6.5 (6, 6.9) ^ log10 | viral load change Effect (camostat vs placebo), Fitzmaurice mixed model, visit 2 (N gene): −0.06 (−0.83, 0.7) log10 | viral load, Fitzmaurice mixed model, visit 2 (N gene): 5.3 (4.6, 5.9) log10 | viral load, Fitzmaurice mixed model, visit 2 change (N gene): −1.2 (−1.8, −0.6) log10 | viral load change Effect (camostat vs placebo), Fitzmaurice mixed model, visit 3(D4) (N gene): −0.74 (−1.51, 0.03) log10 | viral load, Fitzmaurice mixed model, visit 3(D4) (N gene): 4.4 (3.8, 5.1) log10 | viral load, Fitzmaurice mixed model, visit 3(D4) change (N gene): −2 (−2.6, −1.5) log10 | viral load change Effect (camostat vs placebo), Fitzmaurice mixed model, visit 4(D6) (N gene): −0.23 (−1.4, 0.94) log10 | viral load, Fitzmaurice mixed model, visit 4(D6) (N gene): 2.8 (2, 3.7) ^ log10 | viral load, Fitzmaurice mixed model, visit 4(D6) change (N gene): −3.6 (−4.5, −2.8) log10 | change in viral load from baseline, Mean (N gene, visit 1 (day 0)): 0.00 log10 | change in viral load from baseline, Median (N gene, visit 1 (day 0)): 0.00 log10 | viral load (log10) Mean (N gene, visit 1 (day 0)): 6.35 log10 | viral load (log10) Median (N gene, visit 1 (day 0)): 6.47 log10 | change in viral load from baseline, Mean (N gene, visit 2 (day 2)): −1.15 log10 | change in viral load from baseline, Median (N gene, visit 2 (day 2)): −1.14 log10 | viral load (log10) Mean (N gene, visit 2 (day 2)): 4.89 log10 | viral load (log10) Median (N gene, visit 2 (day 2)): 4.49 log10 | change in viral load from baseline, Mean (N gene, visit 3 (day 4)): −2.07 log10 | change in viral load from baseline, Median (N gene, visit 3 (day 4)): −2.32 log10 | viral load (log10) Mean (N gene, visit 3 (day 4)): 4.35 log10 | viral load (log10) Median (N gene, visit 3 (day 4)): 4.56 log10 | change in viral load from baseline, Mean (N gene, visit 4 (day 6)): −3.41 log10 | change in viral load from baseline, Median (N gene, visit 4 (day 6)): −3.07 log10 | viral load (log10) Mean (N gene, visit 4 (day 6)): 2.58 log10 | viral load (log10) Median (N gene, visit 4 (day 6)): 2.48 log10 | change in viral load from baseline, Mean (N gene, visit 5 (day 14)): −5.21 log10 | change in viral load from baseline, Median (N gene, visit 5 (day 14)): −5.52 log10 | viral load (log10) Mean (N gene, visit 5 (day 14)): 1.21 log10 | viral load (log10) Median (N gene, visit 5 (day 14)): 0.12 log10 | change in viral load from baseline, Mean (N gene, visit 6 (day 28)): −6.33 log10 | change in viral load from baseline, Median (N gene, visit 6 (day 28)): −6.60 log10 | viral load (log10) Mean (N gene, visit 6 (day 28)): 0.05 log10 | viral load (log10) Median (N gene, visit 6 (day 28)): 0.00 log10 | change in viral load from baseline, Mean (ORF1ab gene, visit 1 (day 0)): 0.00 log10 | change in viral load from baseline, Median (ORF1ab gene, visit 1 (day 0)): 0.00 log10 | viral load (log10) Mean (ORF1ab gene, visit 1 (day 0)): 6.17 log10 | viral load (log10) Median (ORF1ab gene, visit 1 (day 0)): 6.50 log10 | change in viral load from baseline, Mean (ORF1ab gene, visit 2 (day 2)): −1.17 log10 | change in viral load from baseline, Median (ORF1ab gene, visit 2 (day 2)): −1.04 log10 | viral load (log10) Mean (ORF1ab gene, visit 2 (day 2)): 4.71 log10 | viral load (log10) Median (ORF1ab gene, visit 2 (day 2)): 4.20 log10 | change in viral load from baseline, Mean (ORF1ab gene, visit 3 (day 4)): −2.14 log10 | change in viral load from baseline, Median (ORF1ab gene, visit 3 (day 4)): −2.33 log10 | viral load (log10) Mean (ORF1ab gene, visit 3 (day 4)): 4.10 log10 | viral load (log10) Median (ORF1ab gene, visit 3 (day 4)): 4.41 log10 | change in viral load from baseline, Mean (ORF1ab gene, visit 4 (day 6)): −3.39 log10 | change in viral load from baseline, Median (ORF1ab gene, visit 4 (day 6)): −3.41 log10 | viral load (log10) Mean (ORF1ab gene, visit 4 (day 6)): 2.42 log10 | viral load (log10) Median (ORF1ab gene, visit 4 (day 6)): 2.47 log10 | change in viral load from baseline, Mean (ORF1ab gene, visit 5 (day 14)): −5.19 log10 | change in viral load from baseline, Median (ORF1ab gene, visit 5 (day 14)): −5.61 log10 | viral load (log10) Mean (ORF1ab gene, visit 5 (day 14)): 1.04 log10 | viral load (log10) Median (ORF1ab gene, visit 5 (day 14)): 0.00 log10 | change in viral load from baseline, Mean (ORF1ab gene, visit 6 (day 28)): −6.15 log10 | change in viral load from baseline, Median (ORF1ab gene, visit 6 (day 28)): −6.57 log10 | viral load (log10) Mean (ORF1ab gene, visit 6 (day 28)): 0.05 log10 | viral load (log10) Median (ORF1ab gene, visit 6 (day 28)): 0.00 log10 | viral load, Fitzmaurice mixed model, Common baseline (ORF1ab): 6.3 (5.8, 6.8) log10 | viral load change Effect (camostat vs placebo), Fitzmaurice mixed model, visit 2 (ORF1ab): 0.28 (−0.57, 1.13) log10 | viral load, Fitzmaurice mixed model, visit 2 (ORF1ab): 5 (4.3, 5.8) log10 | viral load, Fitzmaurice mixed model, visit 2 change (ORF1ab): −1.2 (−1.9, −0.6) log10 | viral load change Effect (camostat vs placebo), Fitzmaurice mixed model, visit 3(D4) (ORF1ab): −0.46 (−1.3, 0.39) log10 | viral load, Fitzmaurice mixed model, visit 3(D4) (ORF1ab): 4.2 (3.5, 4.9) log10 | viral load, Fitzmaurice mixed model, visit 3(D4) change (ORF1ab): −2.1 (−2.7, −1.5) log10 | viral load change Effect (camostat vs placebo), Fitzmaurice mixed model, visit 4(D6) (ORF1ab): −0.09 (−1.27, 1.08) log10 | viral load, Fitzmaurice mixed model, visit 4(D6) (ORF1ab): 2.6 (1.8, 3.5) log10 | viral load, Fitzmaurice mixed model, visit 4(D6) change (ORF1ab): −3.6 (−4.5, −2.7) log10 | viral load, Fitzmaurice mixed model, Common baseline (S gene): 5 (4.1, 5.9) log10 | viral load change Effect (camostat vs placebo), Fitzmaurice mixed model, visit 2 (S gene): 0.36 (−0.72, 1.43) log10 | viral load, Fitzmaurice mixed model, visit 2 (S gene): 3.6 (2.6, 4.6) log10 | viral load, Fitzmaurice mixed model, visit 2 change (S gene): −1.4 (−2.2, −0.5) log10 | viral load change Effect (camostat vs placebo), Fitzmaurice mixed model, visit 3(D4) (S gene): −0.13 (−1.07, 0.8) log10 | viral load, Fitzmaurice mixed model, visit 3(D4) (S gene): 2.7 (1.9, 3.5) log10 | viral load, Fitzmaurice mixed model, visit 3(D4) change (S gene): −2.3 (−3.1, −1.5) log10 | viral load change Effect (camostat vs placebo), Fitzmaurice mixed model, visit 4(D6) (S gene): 0.19 (−0.98, 1.36) log10 | viral load, Fitzmaurice mixed model, visit 4(D6) (S gene): 1.7 (0.8, 2.6) log10 | viral load, Fitzmaurice mixed model, visit 4(D6) change (S gene): −3.2 (−4.3, −2.2) log10 | change in viral load from baseline, Mean (S gene, visit 1 (day 0)): 0.00 log10 | change in viral load from baseline, Median (S gene, visit 1 (day 0)): 0.00 log10 | viral load (log10) Mean (S gene, visit 1 (day 0)): 4.50 log10 | viral load (log10) Median (S gene, visit 1 (day 0)): 5.02 log10 | change in viral load from baseline, Mean (S gene, visit 2 (day 2)): −1.24 log10 | change in viral load from baseline, Median (S gene, visit 2 (day 2)): −0.89 log10
